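Grown in 96-well plates, cells were treated for 48 hours with each compound at five concentrations. Insufficient inhibition: endpoint recorded as highest concentration tested. Here, GI50 denotes the concentration required for 50% inhibition of growth. TGI: total growth inhibition.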 Where only a bound is given, the exact number is not on record here.

Some test systems named below: 786-0 renal; MOLT-4 leukemia; NCI-H522 lung; BT-549 breast; SR leukemia; SF-539 CNS; NCI/ADR-RES ovarian; RXF 393 renal.
Test in all cases: NCI-60 cell line screen, 48 h

As for `COc1ccc(-c2nc(-c3nc4cc(Cl)c(F)cc4[nH]3)c3ccccn23)cc1`, the GI50 is 8.94 µM with 786-0 renal; 4.21 µM in the assay on MOLT-4 leukemia; 4.39 µM in the assay on NCI-H522 lung; 4.91 µM in the assay with BT-549 breast; 3.87 µM with SR leukemia; 39.8 µM in the assay on SF-539 CNS. In addition, the GI50 with NCI/ADR-RES ovarian is 5.5 µM; in the assay on RXF 393 renal it was 4.65 µM. The TGI with 786-0 renal, with MOLT-4 leukemia, with NCI-H522 lung, in the assay on BT-549 breast, with SR leukemia and with SF-539 CNS was > 100 µM in each case. For the same compound, the TGI in the assay on NCI/ADR-RES ovarian and with RXF 393 renal was > 100 µM in each case.

As for `C/C(=C(/c1ccccc1)c1ccc(OCC(O)CNCCN2CCOCC2)cc1)c1ccccc1` (stereo unspecified), the GI50 with 786-0 renal is 1.74 µM; in the assay with MOLT-4 leukemia it was 2.13 µM; in the assay with NCI-H522 lung, 2.22 µM; with BT-549 breast, 10.1 µM; in the assay on SR leukemia, 1.66 µM; in the assay with SF-539 CNS, 1.63 µM. The GI50 in the assay with NCI/ADR-RES ovarian was 4.92 µM; with RXF 393 renal, 1.91 µM. In addition, the TGI in the assay with 786-0 renal turned out to be 3.32 µM; in the assay with MOLT-4 leukemia, 5.41 µM; in the assay with NCI-H522 lung it was 6.18 µM; in the assay with BT-549 breast, 22.2 µM; with SR leukemia it was 4.02 µM; with SF-539 CNS, 2.99 µM. The values for the TGI with NCI/ADR-RES ovarian and in the assay with RXF 393 renal were 17.2 µM and 4.22 µM, respectively.

Take `COc1cc(OCc2cccc(-c3ccccc3)c2C)cc(OC)c1CN1CCCCC1C(=O)NCCOCCOCCN` (stereo unspecified): the GI50 is 1.83 µM with 786-0 renal; 2.08 µM with MOLT-4 leukemia; 1.88 µM in the assay with NCI-H522 lung; 11.5 µM with BT-549 breast; 1.74 µM in the assay on SR leukemia; 1.74 µM with SF-539 CNS. In addition, the GI50 in the assay on NCI/ADR-RES ovarian is 12.6 µM; with RXF 393 renal, 3.26 µM. In addition, the TGI stood at 3.53 µM in the assay on 786-0 renal; 5.79 µM in the assay on MOLT-4 leukemia; 4.08 µM in the assay with NCI-H522 lung; 24.7 µM in the assay on BT-549 breast; 4.24 µM with SR leukemia; 3.25 µM in the assay on SF-539 CNS. The TGI in the assay with NCI/ADR-RES ovarian came out at 27.2 µM; with RXF 393 renal, 11.4 µM.

Turning to `COc1ccc2c(c1)CN([C@@H](C)[C@H]1CC[C@H]3[C@@H]4CC[C@H]5C[C@@H](O)CC[C@]5(C)[C@H]4CC[C@]13C)CO2`, the TGI in the assay with 786-0 renal amounted to 2.7 µM; in the assay on MOLT-4 leukemia it was 2.98 µM; in the assay with NCI-H522 lung, 4.21 µM; in the assay with BT-549 breast, 14.4 µM; in the assay on SR leukemia, 2.61 µM; in the assay on SF-539 CNS, 3.33 µM. Besides, the values for the TGI with NCI/ADR-RES ovarian and with RXF 393 renal were 18.6 µM and 2.74 µM, respectively.

Take `CCOC(=O)c1ccc(NC(=O)NC2=NCCS2)cc1`: the GI50 in the assay on 786-0 renal was 0.693 µM; with MOLT-4 leukemia, 1.17 µM; in the assay on NCI-H522 lung it was 0.352 µM; in the assay with BT-549 breast, 0.84 µM; with SR leukemia, 0.973 µM; with SF-539 CNS it was 0.381 µM. The results for the GI50 in the assay with NCI/ADR-RES ovarian and in the assay with RXF 393 renal were 0.505 µM and 0.429 µM, respectively. In addition, the TGI was > 100 µM in the assay on 786-0 renal; > 100 µM with MOLT-4 leukemia; > 40.1 µM in the assay with BT-549 breast; > 100 µM in the assay on SR leukemia; 2.27 µM in the assay on SF-539 CNS; > 49.6 µM in the assay with NCI/ADR-RES ovarian. The compound also gave a TGI with RXF 393 renal of 3.3 µM.

Turning to `CCCc1nc(Cl)nc(Cl)c1Cl`, the TGI was determined as 1.43 µM in the assay with 786-0 renal; 0.551 µM in the assay with MOLT-4 leukemia; 1.26 µM in the assay on NCI-H522 lung; 0.0764 µM with BT-549 breast; 0.529 µM in the assay with SR leukemia; 2.94 µM in the assay on SF-539 CNS. Further, the TGI was > 22.4 µM in the assay on NCI/ADR-RES ovarian and 0.798 µM in the assay on RXF 393 renal.

Regarding `O=C1c2cccnc2-c2nc(-c3cccnc3)cc3c2c1nc1ccccc13`, the GI50 in the assay on 786-0 renal is 2.74 µM; in the assay with MOLT-4 leukemia, 3.21 µM; with NCI-H522 lung, 1.74 µM; in the assay on BT-549 breast it was 4.53 µM; in the assay on SF-539 CNS it was 1.72 µM; in the assay on NCI/ADR-RES ovarian, 3.12 µM. Besides, in the assay with RXF 393 renal, the GI50 is 3.95 µM. Moreover, the TGI was 8.85 µM with 786-0 renal; > 41.3 µM in the assay on MOLT-4 leukemia; 4.35 µM in the assay on NCI-H522 lung; 9.5 µM in the assay on BT-549 breast; > 100 µM in the assay with SR leukemia; 3.6 µM with SF-539 CNS. Also, the TGI is > 23.9 µM in the assay on NCI/ADR-RES ovarian and 11.3 µM in the assay on RXF 393 renal.

With `Nc1nc(N)c2cc(Sc3ccc4ccccc4c3)ccc2n1`, the TGI in the assay with 786-0 renal turned out to be 3.27 µM; in the assay on MOLT-4 leukemia it was 5.51 µM; with NCI-H522 lung, 3.36 µM; with BT-549 breast, 9 µM; in the assay with SR leukemia, 5 µM; in the assay on SF-539 CNS, 5.04 µM. In addition, the TGI with NCI/ADR-RES ovarian came to 4.35 µM; in the assay on RXF 393 renal, 4.62 µM. Moreover, the GI50 in the assay on SR leukemia is 0.805 µM.

`Nc1c(C(=O)c2cccc(C#CCN3CCCCC3)c2)cnn1-c1ccc(F)cc1`: the GI50 with 786-0 renal is > 25 µM; in the assay with MOLT-4 leukemia, 21.2 µM; in the assay on NCI-H522 lung it was > 18.9 µM; in the assay on BT-549 breast, > 13.3 µM; in the assay with SR leukemia it was 14.2 µM; in the assay on SF-539 CNS it was > 25 µM. In addition, the GI50 with NCI/ADR-RES ovarian is > 19.9 µM; with RXF 393 renal, 14 µM. For the same compound, the TGI in the assay on 786-0 renal, in the assay with MOLT-4 leukemia, in the assay with NCI-H522 lung, in the assay on BT-549 breast, in the assay with SR leukemia and in the assay with SF-539 CNS was > 25 µM throughout. Also, the TGI with NCI/ADR-RES ovarian and in the assay on RXF 393 renal was > 25 µM throughout.

Regarding `COc1ccc(-c2cnnn2-c2nonc2-n2cccc2)cc1OC`, the GI50 with 786-0 renal was 7.15 µM; in the assay on MOLT-4 leukemia, 3.63 µM; in the assay on NCI-H522 lung, 2.32 µM; in the assay with BT-549 breast, 4.06 µM; with SR leukemia, 1.9 µM; with SF-539 CNS, 3.44 µM. The GI50 with NCI/ADR-RES ovarian was 2.02 µM; with RXF 393 renal, 2.98 µM. In addition, the TGI in the assay with 786-0 renal was > 100 µM; in the assay on MOLT-4 leukemia it was > 100 µM; in the assay on NCI-H522 lung it was 11.3 µM; in the assay with BT-549 breast it was > 100 µM; in the assay on SR leukemia, > 100 µM; in the assay on SF-539 CNS, 22.2 µM. The TGI with NCI/ADR-RES ovarian was 5.99 µM; in the assay with RXF 393 renal it was 40.2 µM.

On to `C=C(CN1CCc2c([nH]c3ccccc23)C1)c1ccc(C(=O)Nc2ccccc2N)cc1`, for which the GI50 in the assay on 786-0 renal is 4.96 µM; in the assay on MOLT-4 leukemia, 0.116 µM; in the assay with NCI-H522 lung it was 4.13 µM; in the assay with BT-549 breast, 5.29 µM; with SR leukemia it was 0.622 µM; in the assay with SF-539 CNS, 2.76 µM. Besides, the GI50 with NCI/ADR-RES ovarian is 1.51 µM; in the assay with RXF 393 renal it was 4.27 µM. Moreover, the TGI came out at 23.6 µM in the assay with 786-0 renal; 0.405 µM in the assay on MOLT-4 leukemia; 11.5 µM with NCI-H522 lung; 17.7 µM with BT-549 breast; 50 µM with SR leukemia; 9.81 µM in the assay with SF-539 CNS. The figures for the TGI in the assay with NCI/ADR-RES ovarian and in the assay with RXF 393 renal were 17.1 µM and 12.8 µM, respectively.

For the origin of these results see PubChem BioAssay (NCI).
